According to patent publication US20100298300A1, “TRIAZOLOPYRAZINE COMPOUNDS USEFUL FOR THE TREATMENT OF DEGENERATIVE & INFLAMMATORY DISEASES” (priority 2006, published 2010):

Experiments:
[1] = test system: TNFα release by human PBMCs; assay: Cytokine release by LPS stimulated human PBMCs (TNFα ELISA); type: cell-based; conditions: PBMC, 24 h, Table 5, LPS 1 μg/mL
[2] = test system: MMP1 expression by activated primary synovial fibroblasts; assay: 'MMP assay': MMP1 expression by complex trigger activated synovial fibroblasts (MMP1 ELISA); type: cell-based; conditions: Homo sapiens, Fibroblast; Table 3; RASFs, complex trigger, 48 hrs, MMP1 ELISA
[3] = biological target: T1, MAPKAPK5 (Homo sapiens, UniProt Q8IW41); assay: MAPKAP-K5 assay (FlashPlate kinase assay)
T1 sequence (Q8IW41 1-471 isoform Q8IW41-2): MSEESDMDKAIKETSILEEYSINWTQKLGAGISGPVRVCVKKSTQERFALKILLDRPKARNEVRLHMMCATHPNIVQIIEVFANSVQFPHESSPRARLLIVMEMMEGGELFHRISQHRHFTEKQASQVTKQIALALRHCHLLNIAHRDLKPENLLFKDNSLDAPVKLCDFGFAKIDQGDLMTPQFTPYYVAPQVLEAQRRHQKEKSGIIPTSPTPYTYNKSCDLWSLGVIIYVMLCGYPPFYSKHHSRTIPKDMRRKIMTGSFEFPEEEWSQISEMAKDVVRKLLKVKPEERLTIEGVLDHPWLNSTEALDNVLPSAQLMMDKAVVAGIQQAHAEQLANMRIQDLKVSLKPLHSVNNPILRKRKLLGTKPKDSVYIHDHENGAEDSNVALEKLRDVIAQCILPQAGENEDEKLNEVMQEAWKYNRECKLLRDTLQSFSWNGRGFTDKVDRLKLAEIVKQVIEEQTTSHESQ
Method: MAPKAP-K5 reactions are performed in FlashPlate format using 0.1 or 0.2 μCi 33P-ATP; 0.6 μM ATP; 1 mU MAPKAP-K5; 3 μM MAPKAP-K5 peptide substrate, incubated at room temperature for 30 minutes.
The MAPKAP-K5 kinase reaction is performed in a 384 well polypropylene plate (Matrix Technologies) and then transferred to a streptavidin-coated 384 well flashplate (Perkin-Elmer).
To wells containing 2 μL test compound or standard inhibitor, 13 μL Enzyme mix or diluent are added using a Hydra (Robbins Scientific).
Reactions are started by addition of 10 μL of [2,5×] substrate cocktail using a Multidrop (Thermo-Labsystems), to give final concentrations in the assay of:
Plates are incubated at room temperature for 30 minutes.
Reactions are terminated by the addition of 25 μL EDTA (50 mM) to each well using a Micro-fill (Biotek).
Reactions are transferred to a streptavidin-coated flashplate using a Zymark robotic system. Plates are incubated for 60 minutes at room temperature.
All wells are washed 3 times with 100 μl phosphate buffered saline using a Tecan plate washer.
Radioactivity is determined by scintillation counting of the flashplate (empty wells) on a Packard TopCount.
Enzyme Mix: • Enzyme • 50 mM Tris Hcl (pH 7.5) • 0.1 mM EGTA • 2 mM DTT • 1 mg/mL BSA
Reaction Buffer: • 50 mM Tris Hcl (pH 7.5) • 0.1 mM EGTA • 10 mM Magnesium acetate • 2 mM DTT

Compound | EC50 [1] [nM] | EC50 [2] [nM] | IC50 [3] [nM]
CC(C)N1CCC(c2ccc(Nc3ncc(-c4cn[nH]c4)n4ncnc34)cc2)CC1 [Compound 84, [4-(1-Isopropylpiperidin-4-yl)phenyl]-[5-(1H-pyrazol-4-yl)-[1,2,4]triazolo[1,5-a]pyrazin-8-yl]amine] | > 1000 | > 1000 | 501 to 1000
Nc1nc(-c2ccc(-c3cnc(Nc4ccc(N5CCOCC5)cc4)c4ncnn34)cc2)cs1 [Compound 85] | > 1000 | > 1000 | > 1000
CC(C)N1CCN(c2ccc(Nc3ncc(-c4coc(C(N)=O)c4)n4ncnc34)cn2)CC1 [Compound 86, 4-(8-(6-(4-Isopropylpiperazin-1-yl)pyridin-3-ylamino)-[1,2,4]triazolo[1,5-a]pyrazin-5-yl)furan-2-carboxamide] | > 1000 | > 1000 | 1 to 100
O=C1NCc2cc(-c3cnc(Nc4ccc(N5CCOCC5)nc4)c4ncnn34)ccc21 [Compound 87] | > 1000 | 101 to 500 | 1 to 100
CC(C)N1CCC(c2ccc(Nc3ncc(-c4csc(C(N)=O)c4)n4ncnc34)cc2)CC1 [Compound 89, 4-{8-[4-(1-Isopropylpiperidin-4-yl)phenylamino]-[1,2,4]triazolo[1,5-a]pyrazin-5-yl}-thiophene-2-carboxylic acid amide] | > 1000 | 501 to 1000 | 1 to 100
CC(C)N1CCN(c2ccc(Nc3ncc(-c4ccnc(CO)c4)n4ncnc34)cn2)CC1 [Compound 90, (4-{8-[6-(4-Isopropylpiperazin-1-yl)pyridin-3-ylamino]-[1,2,4]triazolo[1,5-a]pyrazin-5-yl}pyridin-2-yl)methanol] | > 1000 | > 1000 | > 1000
CC(C)N1CCN(c2ccc(Nc3ncc(-c4ccnc(CF)c4)n4ncnc34)cc2)CC1 [Compound 91] | > 1000 | > 1000 | > 1000
CC(C)N1CCC(c2ccc(Nc3ncc(-c4ccc5c(c4)CNC5=O)n4ncnc34)cc2)CC1 [Compound 92, 5-{8-[4-(1-Isopropylpiperidin-4-yl)phenylamino]-[1,2,4]triazolo[1,5-a]pyrazin-5-yl}-2,3-dihydroisoindol-1-one] | > 1000 | 101 to 500 | 1 to 100
NC(=O)c1cc(-c2cnc(Nc3ccc(N4CCOCC4)nc3)c3ncnn23)co1 [Compound 94] | > 1000 | > 1000 | 1 to 100
O=C1NCc2cc(-c3cnc(Nc4cnc(N5CCOCC5)nc4)c4ncnn34)ccc21 [Compound 99] | 501 to 1000 | > 1000 | 101 to 500
CC(C)N1CCN(c2ncc(Nc3ncc(-c4ccc5c(c4)CNC5=O)n4ncnc34)cn2)CC1 [Compound 101] | > 1000 | > 1000 | 101 to 500
CC(C)(C)N1CCN(c2ccc(Nc3ncc(-c4ccc5c(c4)CNC5=O)n4ncnc34)cc2)CC1 [Compound 102, 5-{8-[4-(4-tert-Butyl-piperazin-1-yl)-phenylamino]-[1,2,4]triazolo[1,5-a]pyrazin-5-yl}-2,3-dihydro-isoindol-1-one] | > 1000 | > 1000 | 1 to 100
CC(C)(C)N1CCN(c2ccc(Nc3ncc(-c4cn[nH]c4)n4ncnc34)cc2)CC1 [Compound 103] | 101 to 500 | 501 to 1000 | 501 to 1000
c1nc2c(Nc3ccc(N4CCOCC4)cc3)ncc(-c3ccc4[nH]ncc4c3)n2n1 [Compound 104] | > 1000 | > 1000 | > 1000
O=C1NCc2cc(-c3cnc(Nc4ccc(N5CCNCC5=O)cc4)c4ncnn34)ccc21 [Compound 105, 5-{8-[4-(2-Oxo-piperazin-1-yl)-phenylamino]-[1,2,4]triazolo[1,5-a]pyrazin-5-yl}-2,3-dihydro-isoindol-1-one] | > 1000 | > 1000 | 1 to 100
CC(C)N1CCN(c2ccc(Nc3ncc(-c4cc(F)c5c(c4)CNC5=O)n4ncnc34)cc2)CC1 [Compound 108, 7-Fluoro-5-{8-[4-(4-isopropylpiperazin-1-yl)-phenylamino]-[1,2,4]triazolo[1,5-a]pyrazin-5-yl}-2,3-dihydroisoindol-1-one] | > 1000 | > 1000 | 1 to 100
CNCc1cc(Nc2ncc(-c3cn[nH]c3)n3ncnc23)ccc1N1CCOCC1 [Compound 110] | > 1000 | > 1000 | > 1000
O=C1NCc2cc(-c3cnc(Nc4ccc(N5CCOCC5)cc4)c4ncnn34)sc21 [Compound 113] | > 1000 | 101 to 500 | 501 to 1000
O=C1NCc2cc(-c3cnc(NC4CCCCC4)c4ncnn34)ccc21 [Compound 115] | > 1000 | > 1000 | 101 to 500
O=C1NCc2cc(-c3cnc(NC4CCOCC4)c4ncnn34)ccc21 [Compound 116] | > 1000 | > 1000 | > 1000
O=C1NCc2cc(-c3cnc(Nc4ccc(F)cc4)c4ncnn34)ccc21 [Compound 117] | > 1000 | 101 to 500 | > 1000
NC(=O)CN1CCC(c2ccc(Nc3ncc(-c4cn[nH]c4)n4ncnc34)cc2)CC1 [Compound 169, 2-(4-{4-[5-(1H-Pyrazol-4-yl)-[1,2,4]triazolo[1,5-a]pyrazin-8-ylamino]phenyl}-piperidin-1-yl)acetamide] | > 1000 | > 1000 | 501 to 1000
CC(C)N1CCN(c2ccc(Nc3ncc(-c4ccc5c(c4)CNC5=O)n4ncnc34)cc2C(F)(F)F)CC1 [Compound 170, 5-{8-[4-(4-Isopropylpiperazin-1-yl)-3-trifluoromethylphenylamino]-[1,2,4]triazolo[1,5-a]pyrazin-5-yl}-2,3-dihydroisoindol-1-one] | > 1000 | > 1000 | 101 to 500
CC(C)N1CCN(c2ccc(Nc3ncc(-c4cn[nH]c4)n4ncnc34)cc2C(F)(F)F)CC1 [Compound 171, [4-(4-Isopropylpiperazin-1-yl)-3-trifluoromethylphenyl]-[5-(1H-pyrazol-4-yl)-[1,2,4]triazolo[1,5-a]pyrazin-8-yl]amine] | 501 to 1000 | > 1000 | > 1000
CC(C)N1CCC(c2ccc(Nc3ncc(-c4cn[nH]c4)n4ncnc34)cn2)CC1 [Compound 172] | > 1000 | > 1000 | > 1000
O=C1NCc2cc(-c3cnc(Nc4ccc(F)cc4F)c4ncnn34)ccc21 [Compound 174] | > 1000 | > 1000 | > 1000
CNCc1cc(Nc2ncc(-c3ccc4c(c3)CNC4=O)n3ncnc23)ccc1N1CCOCC1 [Compound 179] | > 1000 | > 1000 | 101 to 500
CC(C)N1CCN(c2ccc(Nc3ncc(-c4ccc5c(c4)CNC5=O)n4ncnc34)cc2Cl)CC1 [Compound 180] | > 1000 | > 1000 | 1 to 100
O=C1NCc2cc(-c3cnc(NC4CCCC4)c4ncnn34)ccc21 [Compound 181] | > 1000 | > 1000 | 101 to 500
